Results published in patent publication US10155259B2 (Merck Sharp & Dohme B.V., priority 2011, dated 2018).
pIC50: −log10 of the molar value.

Molecular target: T1, human FSH receptor (Homo sapiens, UniProt P23945)
T1 construct: expressed in transfected cells; host or cells: CHO cells, stably transfected; cotransfected with CRE-luciferase reporter
T1 sequence (P23945 18-695): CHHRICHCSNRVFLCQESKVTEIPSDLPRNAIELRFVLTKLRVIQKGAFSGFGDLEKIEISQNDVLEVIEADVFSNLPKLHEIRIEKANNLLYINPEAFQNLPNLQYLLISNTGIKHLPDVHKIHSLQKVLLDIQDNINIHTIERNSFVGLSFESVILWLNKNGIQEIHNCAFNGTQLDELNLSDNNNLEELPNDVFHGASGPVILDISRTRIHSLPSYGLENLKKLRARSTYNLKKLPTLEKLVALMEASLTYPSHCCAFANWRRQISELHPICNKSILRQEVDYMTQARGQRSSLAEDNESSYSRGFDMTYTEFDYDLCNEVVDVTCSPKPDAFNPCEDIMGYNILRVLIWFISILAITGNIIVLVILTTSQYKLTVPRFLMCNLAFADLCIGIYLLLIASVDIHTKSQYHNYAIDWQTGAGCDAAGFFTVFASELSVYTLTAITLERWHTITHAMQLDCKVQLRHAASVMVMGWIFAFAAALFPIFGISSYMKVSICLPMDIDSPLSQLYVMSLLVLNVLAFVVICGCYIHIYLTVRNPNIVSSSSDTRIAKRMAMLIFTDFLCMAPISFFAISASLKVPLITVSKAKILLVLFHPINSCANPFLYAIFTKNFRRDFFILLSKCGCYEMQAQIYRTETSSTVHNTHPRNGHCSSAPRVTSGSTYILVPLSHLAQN
Assay: Antagonistic activity of compounds at the human FSH receptor expressed in CHO cells (CRE-luciferase reporter)
Assay type: cell-based
Conditions: CHO cells stably transfected with human FSH receptor and CRE/luciferase reporter; together with 49 μM recFSH; 4 hours incubation; 1% DMSO; read-out: IC50 (concentration of test compound causing half-maximal inhibition of the maximally attainable inhibition of the luciferase stimulation)
Method: Antagonistic Activity of Compounds at the Human FSH Receptor Expressed in CHO Cells
Antagonistic activity of the compounds at the human FSH receptor was determined in Chinese Hamster Ovary (CHO) cells stably transfected with the human FSH receptor and cotransfected with a cAMP responsive element (CRE)/promotor directing the expression of a firefly luciferase reporter gene. Binding of the compounds to the Gs protein-coupled FSH receptor will result in an increase of cAMP, which in turn will induce an increased transactivation of the luciferase reporter. The cells (7,500 cells/well of a 384 well plate) were incubated in Dulbecco' minimal essential F12 modified medium (Invitrogen), supplemented with 1 μg/ml bovine insulin, 5 μg/ml human apo-transferrin, 100 U/ml penicillin G and 100 μg/ml streptomycin with the test compounds (concentration between 0.316 nM and 10.0 μM) in duplicate together with […] (which, at this concentration in the absence of test compound, induces 80% of the maximal luciferase stimulation) in a humidified atmosphere (95%) at 5-7% CO2 and 37° C. The final concentration of DMSO was 1%. After 4 hours of incubation, plates were allowed to adjust to room temperature for 1 hour. Then, SteadyLite (PerkinElmer) solution was added to the wells and cells were allowed to lyse for at least 1 hour at room temperature. Subsequently, luciferase activity was measured in a luminescence counter. The signal is expressed as counts per second (cps). The IC50 (concentration of test compound causing half-maximal (50%) inhibition of the maximally attainable inhibition of the luciferase stimulation by the compound) and efficacy of the compounds were determined using the software program MathIQ (version 2.3, ID Business Solutions Limited).

| Structure (SMILES) | pIC50 |
| --- | --- |
| COc1cc2c(cc1OCC(O)CO)-c1cc(C(=O)N[C@@H](CO)Cc3c[nH]c4ccccc34)c(-c3cccs3)n1CC2 (stereo partly drawn) [Example 40, 9-(2,3-dihydroxypropoxy)-N—((R)-1-hydroxy-3-(1H-indol-3-yl)propan-2-yl)-8-methoxy-3-(thiophen-2-yl)-5,6-dihydropyrrolo[2,1-a]isoquinoline-2-carboxamide] | > 7.00 |
| COc1cc2c(cc1C(=O)N1CCOCC1)-c1cc(C(=O)N[C@@H](CO)Cc3c[nH]c4ccccc34)c(-c3cccc(F)c3)n1CC2 [Example 47, (R)-3-(3-fluorophenyl)-N-(1-hydroxy-3-(1H-indol-3-yl)propan-2-yl)-8-methoxy-9-(morpholine-4-carbonyl)-5,6-dihydropyrrolo[2,1-a]isoquinoline-2-carboxamide] | 6.00 to 7.00 |
| COc1ccc(-c2cc3c(cc2OC)CCn2c-3cc(C(=O)N[C@@H](CO)Cc3c[nH]c4ccccc34)c2-c2cccs2)cn1 [Example 58, (R)—N-(1-hydroxy-3-(1H-indol-3-yl)propan-2-yl)-8-methoxy-9-(6-methoxypyridin-3-yl)-3-(thiophen-2-yl)-5,6-dihydropyrrolo[2,1-a]isoquinoline-2-carboxamide] | > 7.00 |
| COc1cc2c(cc1OC)-c1cc(C(=O)N[C@@H](CO)Cc3c[nH]c4ccccc34)c(-c3ccccn3)n1CC2 [Example 11] | > 7.00 |
| COc1cc2c(cc1OC)-c1cc(C(=O)N[C@@H](CO)Cc3c[nH]c4ccccc34)c(-c3cccc(F)c3)n1CC2 [Example 10, (R)-3-(3-fluorophenyl)-N-(1-hydroxy-3-(1H-indol-3-yl)propan-2-yl)-8,9-dimethoxy-5,6-dihydropyrrolo[2,1-a]isoquinoline-2-carboxamide] | > 7.00 |
| COc1cc2c(cc1OC)-c1cc(C(=O)N[C@@H](CO)Cc3c[nH]c4ccccc34)c(-c3ccc([N+](=O)[O-])cc3)n1CC2 [Example 9, (R)—N-(1-hydroxy-3-(1H-indol-3-yl)propan-2-yl)-8,9-dimethoxy-3-(4-nitrophenyl)-5,6-dihydropyrrolo[2,1-a]isoquinoline-2-carboxamide] | 6.00 to 7.00 |
| COc1cc2c(cc1OC(C)C)-c1cc(C(=O)N[C@@H](CO)Cc3c[nH]c4ccccc34)c(C(=O)c3cccs3)n1CC2 [Example 28, (R)—N-(1-hydroxy-3-(1H-indol-3-yl)propan-2-yl)-9-isopropoxy-8-methoxy-3-(thiophene-2-carbonyl)-5,6-dihydropyrrolo[2,1-a]isoquinoline-2-carboxamide] | > 7.00 |
| COc1cc2c(cc1OC(C)C)-c1cc(C(=O)N[C@@H](CO)Cc3c[nH]c4ccccc34)c(-c3ccco3)n1CC2 [Example 19, (R)-3-(furan-2-yl)-N-(1-hydroxy-3-(1H-indol-3-yl)propan-2-yl)-9-isopropoxy-8-methoxy-5,6-dihydropyrrolo[2,1-a]isoquinoline-2-carboxamide] | > 7.00 |
| COc1cc2c(cc1C(C)=C(C)C)-c1cc(C(=O)N[C@@H](CO)Cc3c[nH]c4ccccc34)c(-c3cccc(F)c3)n1CC2 [Example 46, (R)-3-(3-fluorophenyl)-N-(1-hydroxy-3-(1H-indol-3-yl)propan-2-yl)-8-methoxy-9-(3-methylbut-2-en-2-yl)-5,6-dihydropyrrolo[2,1-a]isoquinoline-2-carboxamide] | 6.00 to 7.00 |
| COc1cc2c(cc1-c1cnc(N(C)C)nc1)-c1cc(C(=O)N[C@@H](CO)Cc3c[nH]c4ccccc34)c(-c3cccc(F)c3)n1CC2 [Example 51, (R)-9-(2-(dimethylamino)pyrimidin-5-yl)-3-(3-fluorophenyl)-N-(1-hydroxy-3-(1H-indol-3-yl)propan-2-yl)-8-methoxy-5,6-dihydropyrrolo[2,1-a]isoquinoline-2-carboxamide] | 6.00 to 7.00 |
| COc1ccccc1-c1c(C(=O)N[C@@H](CO)Cc2c[nH]c3ccccc23)nc2n1CCc1cc(OC)c(OC)nc1-2 [Example 70, N—((R)-1-hydroxy-3-(1H-indol-3-yl)propan-2-yl)-8,9-dimethoxy-3-(2-methoxyphenyl)-5,6-dihydroimidazo[1,2-h][1,7]naphthyridine-2-carboxamide] | > 7.00 |
| COc1cc2c(cc1-c1cnn(C)c1)-c1cc(C(=O)N[C@@H](CO)Cc3c[nH]c4ccccc34)c(-c3cccs3)n1CC2 [Example 55, (R)—N-(1-hydroxy-3-(1H-indol-3-yl)propan-2-yl)-8-methoxy-9-(1-methyl-1H-pyrazol-4-yl)-3-(thiophen-2-yl)-5,6-dihydropyrrolo[2,1-a]isoquinoline-2-carboxamide] | > 7.00 |
| COc1cc2c(c(OC)c1OC)-c1cc(C(=O)N[C@@H](CO)Cc3c[nH]c4ccccc34)c(-c3cccc(F)c3)n1CC2 [Example 65, (R)-3-(3-fluorophenyl)-N-(1-hydroxy-3-(1H-indol-3-yl)propan-2-yl)-8,9,10-trimethoxy-5,6-dihydropyrrolo[2,1-a]isoquinoline-2-carboxamide] | > 7.00 |
| COc1cc2c(cc1-c1cncnc1)-c1cc(C(=O)N[C@@H](CO)Cc3c[nH]c4ccccc34)c(-c3cccc(F)c3)n1CC2 [Example 50, (R)-3-(3-fluorophenyl)-N-(1-hydroxy-3-(1H-indol-3-yl)propan-2-yl)-8-methoxy-9-(pyrimidin-5-yl)-5,6-dihydropyrrolo[2,1-a]isoquinoline-2-carboxamide] | > 7.00 |
| COc1cc2c(cc1-c1cn[nH]c1)-c1cc(C(=O)N[C@@H](CO)Cc3c[nH]c4ccccc34)c(-c3cccs3)n1CC2 [Example 59, (R)—N-(1-hydroxy-3-(1H-indol-3-yl)propan-2-yl)-8-methoxy-9-(1H-pyrazol-4-yl)-3-(thiophen-2-yl)-5,6-dihydropyrrolo[2,1-a]isoquinoline-2-carboxamide] | > 7.00 |
| COc1cc2c(cc1OC(C)C)-c1cc(C(=O)N[C@@H](CO)Cc3c[nH]c4ccccc34)c(C(=O)C3CC3)n1CC2 [Example 27, (R)-3-(cyclopropanecarbonyl)-N-(1-hydroxy-3-(1H-indol-3-yl)propan-2-yl)-9-isopropoxy-8-methoxy-5,6-dihydropyrrolo[2,1-a]isoquinoline-2-carboxamide] | > 7.00 |
| CC(C)Oc1cc2c(cc1OC(C)C)-c1cc(C(=O)N[C@@H](CO)Cc3c[nH]c4ccccc34)c(-c3ccccc3)n1CC2 [Example 30, (R)—N-(1-hydroxy-3-(1H-indol-3-yl)propan-2-yl)-8,9-diisopropoxy-3-phenyl-5,6-dihydropyrrolo[2,1-a]isoquinoline-2-carboxamide] | 6.00 to 7.00 |
| COc1cc2c(cc1C(=O)N(C)C)-c1cc(C(=O)N[C@@H](CO)Cc3c[nH]c4ccccc34)c(-c3cccc(F)c3)n1CC2 [Example 48, (R)-3-(3-fluorophenyl)-N2-(1-hydroxy-3-(1H-indol-3-yl)propan-2-yl)-8-methoxy-N9,N9-dimethyl-5,6-dihydropyrrolo[2,1-a]isoquinoline-2,9-dicarboxamide] | 6.00 to 7.00 |
| COc1cc2c(c(OC)c1OC)-c1cc(C(=O)N[C@@H](CO)Cc3c[nH]c4ccccc34)c(-c3ccccc3)n1CC2 [Example 63, (R)—N-(1-hydroxy-3-(1H-indol-3-yl)propan-2-yl)-8,9,10-trimethoxy-3-phenyl-5,6-dihydropyrrolo[2,1-a]isoquinoline-2-carboxamide] | > 7.00 |
| COc1cc2c(cc1OC1CCCC1)-c1cc(C(=O)N[C@@H](CO)Cc3c[nH]c4ccccc34)c(-c3cccc(F)c3)n1CC2 [Example 35] | > 7.00 |
| COc1cc2c(cc1OC(C)C)-c1cc(C(=O)N[C@@H](CO)Cc3c[nH]c4ccccc34)c(-c3cccc(Cl)c3)n1CC2 [Example 16, (R)-3-(3-chlorophenyl)-N-(1-hydroxy-3-(1H-indol-3-yl)propan-2-yl)-9-isopropoxy-8-methoxy-5,6-dihydropyrrolo[2,1-a]isoquinoline-2-carboxamide] | > 7.00 |
| COc1cc2c(cc1O)-c1cc(C(=O)N[C@@H](CO)Cc3c[nH]c4ccccc34)c(-c3cccc(F)c3)n1CC2 [Example 31, (R)-3-(3-fluorophenyl)-9-hydroxy-N-(1-hydroxy-3-(1H-indol-3-yl)propan-2-yl)-8-methoxy-5,6-dihydropyrrolo[2,1-a]isoquinoline-2-carboxamide] | 6.00 to 7.00 |
